In patent publication EP1064002B9, “USE OF SPHINGOSIN-1-PHOSPHATE, SPHINGOSIN-1-PHOSPHATE DERIVATIVES AND/OR MIXTURES THEREOF FOR THE TREATMENT OF INFLAMMATORY DISEASES OF THE SKIN” (Dermapharm AG, priority 1998, dated 1999):

Assays:
Format in all cases: cell-based
Fibroblasten = test: Fibroblast proliferation, non-stimulated cells in serum-free medium (DMEM without FKS)
From the text: (§1) Das Wachstumsverhalten menschlicher. Fibroblasten in Gegenwart der Testsubstanzen wurde an nicht stimulierten Zellen verfolgt, die in serumfreiem Medium (nach Dulbecco modifiziertes Earle-Medium (DMEM) ohne fetales Kälber-Serum (FKS)) kultiviert wurden.

[1] = as above; conditions: human, fibroblasts, read-out: Konzentrationen mit ausgeprägter Toxizität an Fibroblasten
From the text: as §1

Keratinozyten [2] = test: Keratinocyte proliferation in keratinocyte basal medium (KBM) without supplements
From the text: Die Versuche wurden auch in "keratinocyte basal medium" (KBM), ohne Supplemente), an kultivierten Keratinozyten durchgeführt. Damit konnte festgestellt werden, daß SPP bzw. […] DMS und C2C wirkten auch in diesem Medium toxisch.

Keratinozyten [3] = test: Keratinocyte proliferation in KGM, [3H]-thymidine incorporation into DNA; conditions: 4-day treatment; for Proliferation von Keratinozyten ([^3H]-Thymidineinbau in die DNA): 1-10 µM
Protocol: (§2) Die Proliferation von Keratinozyten wurde in Gegenwart von 1-10 µM von Sphingolipid-Derivaten untersucht. Nach 4-tägiger Behandlung mit verschiedenen Sphingolipiden wurde in der logarithmischen Wachstumsphase der Keratinozyten der [^3H]-Thymidineinbau in die DNA gemessen. […] Eine Proliferationshemmung tritt bereits bei einer Konzentration von 1 µM ein, 10 µM SPP reduzierten den Thymidineinbau um ca. 63,1 % (Abb. 1). […] Anhand des MTT-Tests wurde die Zellvitalität in Gegenwart von 1-25 µM SPP untersucht, bis 10 µM wirkten die Substanzen nicht toxisch. […] Dies zeigten mikroskopische Untersuchungen, der MTT-Test als auch durchflußzytometrische Untersuchungen zu Apoptose und Nekrose.

Keratinozyten [4] = test: Keratinocyte differentiation, transglutaminase activity
From the text: Nachdem gezeigt worden war, daß SPP die Proliferation von Keratinozyten hemmt, ohne daß damit eine vermehrte Toxizität verbunden ist, wurde der Differenzierungsgrad der Zellen nach Einwirkung der Sphingolipid-Derivate untersucht.

[5] = Keratinocyte viability/toxicity: MTT test, microscopy, flow cytometry for apoptosis and necrosis; conditions: keratinocytes; tested at 1-25 µM; read-out: Zellvitalität (MTT-Test): nicht toxisch bis
Protocol: as §2

| SMILES | MCC [1] | Toxizität an Keratinozyten (Keratinozyten [2]) | Proliferation von Keratinozyten ([^3H]-Thymidineinbau in die DNA) (Keratinozyten [3]) | Differenzierung von Keratinozyten (Transglutaminase-Aktivität) (Keratinozyten [4]) | Zunahme der Differenzierung von Keratinozyten compared with Calcitriol D3 (Keratinozyten [4]) | Proliferation von Fibroblasten (Fibroblasten; concentration-dependent) | mitogene Effekte an Keratinozyten (Keratinozyten [2]) | antiproliferative effect compared with another substance (Keratinozyten [3]) | further results |
| --- | --- | --- | --- | --- | --- | --- | --- | --- | --- |
| CCCCCCCCCCCCC/C=C/[C@@H](O)[C@H](CO)NC(C)=O [C2C, C2-Ceramid] | ≥ 5 µM | toxisch | hemmten zwar ebenso den Thymidineinbau |  |  |  |  |  | Proliferation von Fibroblasten (Fibroblasten; low concentrations): sehr geringe proliferationsfördernde Wirkung |
| C=C1/C(=C\C=C2/CCC[C@]3(C)[C@@H]([C@H](C)CCCC(C)(C)O)CC[C@@H]23)C[C@@H](O)C[C@@H]1O [Calcitriol] |  |  |  | ebenfalls eine Differenzierung fördert |  |  |  |  |  |
| CCCCCCCCCCCCC/C=C/[C@@H](O)[C@H](CO)N(C)C [DMS, Dimethylsphingosin] | ≥ 5 µM | toxisch |  |  |  |  |  |  |  |
| CCCCCCCCCCCCC/C=C/[C@@H](O)[C@@H](N)CO [SPH, Sphingosin] |  |  | wachstumshemmende Wirkung | die Differenzierung von Keratinozyten förderten | durchaus vergleichbar | konzentrationsabhängig stark' stimuliert | keine mitogenen Effekte | schwächer ausgeprägt als bei SPP | Wirkstärke (Teilungsaktivität bei Fibroblasten) compared with SPP (Fibroblasten): niedriger als bei SPP; toxische Effekte an Fibroblasten (Fibroblasten; 10 µM): toxische Effekte |
| CCCCCCCCCCCCC/C=C/[C@@H](O)[C@@H](N)COP(=O)(O)O [SPP, Sphingosin-1-Phosphat] |  |  | stark proliferationshemmend | die Differenzierung von Keratinozyten förderten | durchaus vergleichbar | konzentrationsabhängig stark' stimuliert | keine mitogenen Effekte | ebenso potent wie Calcipotriol D3 | Proliferation von Fibroblasten (Fibroblasten; 1 µM): wahrnehmbare Proliferationszunahme; fold induction at 10 µM (Fibroblasten; Fibroblast, 10 µM, read-out: höchste Aktivität (Proliferation von Fibroblasten)): ~6.5; MNTC [5]: ≤ 10 µM; inhibition at 10 µM (Keratinozyten [3]; Keratinocyte, 96 h, 10 µM, logarithmic growth phase, read-out: reduzierten den Thymidineinbau um): ~63.1%; minimal effective concentration (Keratinozyten [3]; Keratinocyte, 96 h, read-out: Konzentration, bei der eine Proliferationshemmung bereits eintritt): 1 µM |
